The values that follow come from patent US12239643B2, “Therapeutic agent for inflammatory diseases, autoimmune diseases, fibrotic diseases, and cancer diseases” (MEIJI SEIKA PHARMA CO., LTD., priority 2018, dated 2025).

Each structure is given as a SMILES string. Like-named read-outs stand apart in the source and are kept apart here.

In data set [1] the test system is PDE4. The data set can be described thus: Evaluation of PDE4 inhibitory activity, scintillation proximity assay. It is filed as biochemical. The note with it: scintillation proximity assay. The method, boiled down: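 SPA with [2,8-3H]-cAMP and diluted PDE4 enzyme preparation in 50 mM Tris-HCl pH 7.4, 8.3 mM MgCl2, 1.7 mM EGTA, 3 mg/mL BSA, 120 min at room temperature. Product captured on ZnSO4-containing YSi-SPA beads, scintillation counted; IC50 from inhibition curves vs DMSO control and no-enzyme blank.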

Data set [2] can be described thus: Hepatic metabolic stability (rat liver microsome method). It is filed as in vitro ADME. The note with it: rat liver microsomes 0.5 mg/mL, test substance 1 μM, NADPH 1 mM, 37° C., 30 minutes. The method, boiled down:
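Rat liver microsomes (0.5 mg/mL final) with test compound (1 μM final) in 100 mM potassium phosphate pH 7.4, 37° C; reaction started with NADPH (1 mM final) after 5 min preincubation. Acetonitrile stop at 0 and 30 min, LC-MS quantitation; % remaining = 30 min/0 min ×100, graded A ≥75%, B 60–<75%, C 45–<60%, D <45%.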
Background: Liver microsomes are a subcellular fraction often used to study metabolism.

Where [3] appears, read: read-out: PDE4 Inhibitory Activity (Evaluation 1; concentration for the inhibition rate of 50%).

With `c1csc(-c2ccc(OC3COC3)c3nc(N4CC5CC(C4)N5)oc23)n1` [Example 325, 2-(3,6-Diazabicyclo[3.1.1]heptan-3-yl)-4-(oxetan-3-yloxy)-7-(thiazol-2-yl)benzo[d]oxazole], the IC50 in data set [1] (setting [3]) was less than 100 nM. The “Residual ratio (% remaining for 30-minute reaction)” value in data set [2] is recorded as “A (A: a % remaining rate of 75% or more)”.

For `c1csc(-c2ccc(O[C@H]3CCOC3)c3nc(N4CC5CC(C4)N5)oc23)n1` [Example 323, 2-(3,6-Diazabicyclo[3.1.1]heptan-3-yl)-4-(((S)-tetrahydrofuran-3-yl)oxy)-7-(thiazol-2-yl)benzo[d]oxazole], the IC50 in data set [1] (setting [3]) is less than 100 nM. Further, the “Residual ratio (% remaining for 30-minute reaction)” value in data set [2] is “B (B: 60% or more and less than 75%)”.

With `O=S(=O)(NCCO)c1ccc(-c2nccs2)c2oc(N3CC4CC(C3)N4)nc12` [Example 385, 2-(3,6-Diazabicyclo[3.1.1]heptan-3-yl)-N-(2-hydroxyethyl)-7-(thiazol-2-yl)benzo[d]oxazole-4-sulfonamide], the IC50 in data set [1] (setting [3]) is less than 100 nM. Also, the “Residual ratio (% remaining for 30-minute reaction)” value in data set [2] was “A (A: a % remaining rate of 75% or more)”.

For the compound `CC(C)(O)C(F)(F)Oc1ccc(-n2nccn2)c2oc(N3CC4CCC(C3)N4)nc12` [Example 322, 1-((2-(3,8-Diazabicyclo[3.2.1]octan-3-yl)-7-(2H-1,2,3-triazol-2-yl)benzo[d]oxazol-4-yl)oxy)-1,1-difluoro-2-methylpropan-2-ol], the IC50 in data set [1] (setting [3]) is less than 100 nM. Besides, in data set [2], the “Residual ratio (% remaining for 30-minute reaction)” value is on record as “A (A: a % remaining rate of 75% or more)”.

In the case of `c1csc(-c2ccc(N3CCOCC3)c3nc(N4CC5CC(C4)N5)oc23)n1` [Example 369, 2-(3,6-Diazabicyclo[3.1.1]heptan-3-yl)-4-morpholino-7-(thiazol-2-yl)benzo[d]oxazole], in data set [1] (setting [3]), the IC50 is less than 100 nM. The “Residual ratio (% remaining for 30-minute reaction)” value in data set [2] was “B (B: 60% or more and less than 75%)”.

Turning to `CN(CCO)C(=O)c1ccc(-c2nccs2)c2oc(N3CC4CC(C3)N4)nc12` [Example 356, 2-(3,6-Diazabicyclo[3.1.1]heptan-3-yl)-N-(2-hydroxyethyl)-N-methyl-7-(thiazol-2-yl)benzo[d]oxazole-4-carboxamide], the IC50 in data set [1] (setting [3]) was in the range of 100 to 1000 nM. Besides, the “Residual ratio (% remaining for 30-minute reaction)” value in data set [2] is “A (A: a % remaining rate of 75% or more)”.

For the compound `OCC(F)(F)Oc1ccc(-c2ccc(F)cn2)c2oc(N3CC4CC(C3)N4)nc12` [Example 319, 2-((2-(3,6-Diazabicyclo[3.1.1]heptan-3-yl)-7-(5-fluoropyridin-2-yl)benzo[d]oxazol-4-yl)oxy)-2,2-difluoroethan-1-ol], the IC50 in data set [1] (setting [3]) is less than 100 nM. In data set [2], the “Residual ratio (% remaining for 30-minute reaction)” value is recorded as “A (A: a % remaining rate of 75% or more)”.

As to `O=C(NC1CC1)c1ccc(-c2nccs2)c2oc(N3CC4CC(C3)N4)nc12` [Example 357, 2-(3,6-Diazabicyclo[3.1.1]heptan-3-yl)-N-cyclopropyl-7-(thiazol-2-yl)benzo[d]oxazole-4-carboxamide], the IC50 in data set [1] (setting [3]) is less than 100 nM. In addition, the “Residual ratio (% remaining for 30-minute reaction)” value in data set [2] is “A (A: a % remaining rate of 75% or more)”.

On to `CC(C)(O)C(F)(F)Oc1ccc(-c2ccsn2)c2oc(N3CC4CCC(C3)N4)nc12` [Example 331, 1-((2-(3,8-Diazabicyclo[3.2.1]octan-3-yl)-7-(isothiazol-3-yl)benzo[d]oxazol-4-yl)oxy)-1,1-difluoro-2-methylpropan-2-ol], for which, in data set [1] (setting [3]), the IC50 is less than 100 nM. Further, the “Residual ratio (% remaining for 30-minute reaction)” value in data set [2] is “B (B: 60% or more and less than 75%)”.

As for `C[C@@H](O)COc1ccc(-c2nccs2)c2oc(N3CC4CC(C3)N4)nc12` [Example 259, (2R)-1-((2-(3,6-diazabicyclo[3.1.1]heptan-3-yl)-7-(thiazol-2-yl)benzo[d]oxazol-4-yl)oxy)propan-2-ol], the IC50 in data set [1] (setting [3]) was less than 100 nM. Besides, the “Residual ratio (% remaining for 30-minute reaction)” value in data set [2] was “A (A: a % remaining rate of 75% or more)”.

As to `O=S(=O)(CCO)c1ccc(-c2nccs2)c2oc(N3CC4CC(C3)N4)nc12` [Example 350, 2-((2-(3,6-Diazabicyclo[3.1.1]heptan-3-yl)-7-(thiazol-2-yl)benzo[d]oxazol-4-yl)sulfonyl)ethan-1-ol], the IC50 in data set [1] (setting [3]) was less than 100 nM. The “Residual ratio (% remaining for 30-minute reaction)” value in data set [2] is “A (A: a % remaining rate of 75% or more)”.

Take `O=C(c1ccc(-c2nccs2)c2oc(N3CC4CC(C3)N4)nc12)N1CCOCC1` [Example 359, (2-(3,6-Diazabicyclo[3.1.1]heptan-3-yl)-7-(thiazol-2-yl)benzo[d]oxazol-4-yl) (morpholino)methanone]: the IC50 in data set [1] (setting [3]) was in the range of 100 to 1000 nM. Besides, the “Residual ratio (% remaining for 30-minute reaction)” value in data set [2] is listed as “A (A: a % remaining rate of 75% or more)”.

`Fc1ccc(-c2cc(Cl)c(OC(F)(F)F)c3nc(N4CC5CCC(C4)N5)oc23)nc1` [Example 10, 2-(3,8-Diazabicyclo[3.2.1]octan-3-yl)-5-chloro-7-(5-fluoropyridin-2-yl)-4-(trifluoromethoxy)benzo[d]oxazole]: in data set [1] (class symbols of Evaluation 1, read-out: PDE4 Inhibitory Activity (concentration for the inhibition rate of 50%, IC50), Evaluation 1), the IC50 was less than 100 nM. Further, the “Residual ratio (% remaining for 30-minute reaction)” value in data set [2] was “A (A: a % remaining rate of 75% or more)”.

Regarding `OCC(F)(F)Oc1ccc(-c2ccccn2)c2oc(N3CC4CC(C3)N4)nc12` [Example 315, 2-((2-(3,6-Diazabicyclo[3.1.1]heptan-3-yl)-7-(pyridin-2-yl)benzo[d]oxazol-4-yl)oxy)-2,2-difluoroethan-1-ol], the IC50 in data set [1] (setting [3]) was less than 100 nM. Moreover, the “Residual ratio (% remaining for 30-minute reaction)” value in data set [2] is recorded as “A (A: a % remaining rate of 75% or more)”.

On to `FC(F)(F)c1ccc(Oc2cc(-c3nccs3)c3oc(N4CC5CC(C4)N5)nc3c2)nc1` [Example 413, 2-(3,6-Diazabicyclo[3.1.1]heptan-3-yl)-7-(thiazol-2-yl)-5-((5-(trifluoromethyl)pyridin-2-yl)oxy)benzo[d]oxazole], for which, in data set [1] (setting [3]), the IC50 is less than 100 nM. For the same compound, the “Residual ratio (% remaining for 30-minute reaction)” value in data set [2] is on record as “A (A: a % remaining rate of 75% or more)”.

`CC(C)(O)C(F)(F)Oc1ccc(-c2ccc(Cl)cn2)c2oc(N3CC4CC(C3)N4)nc12` [Example 363, 1-((2-(3,6-Diazabicyclo[3.1.1]heptan-3-yl)-7-(5-chloropyridin-2-yl)benzo[d]oxazol-4-yl)oxy)-1,1-difluoro-2-methylpropan-2-ol]: the IC50 in data set [1] (setting [3]) was less than 100 nM. Moreover, the “Residual ratio (% remaining for 30-minute reaction)” value in data set [2] is “A (A: a % remaining rate of 75% or more)”.

Regarding `CC(O)C(F)(F)Oc1ccc(-c2nccs2)c2oc(N3CC4CC(C3)N4O)nc12` (single isomer, unassigned) [Example 372, 3-(4-(1,1-Difluoro-2-hydroxypropoxy)-7-(thiazol-2-yl)benzo[d]oxazol-2-yl)-3,6-diazabicyclo[3.1.1]heptan-6-ol], in data set [1] (setting [3]), the IC50 is less than 100 nM. For the same compound, the “Residual ratio (% remaining for 30-minute reaction)” value in data set [2] was “B (B: 60% or more and less than 75%)”.

For the compound `OCc1cnc(Oc2ccc(-c3nccs3)c3oc(N4CC5CC(C4)N5)nc23)c(C(F)(F)F)c1` [Example 342, (6-((2-(3,6-Diazabicyclo[3.1.1]heptan-3-yl)-7-(thiazol-2-yl)benzo[d]oxazol-4-yl)oxy)-5-(trifluoromethyl)pyridin-3-yl)methanol], the IC50 in data set [1] (setting [3]) was less than 100 nM. The “Residual ratio (% remaining for 30-minute reaction)” value in data set [2] was “B (B: 60% or more and less than 75%)”.
